Data published in patent publication US9174931B2, “Compositions for the treatment of diabetes and pre-diabetes” (CELLIX BIO PRIVATE LIMITED, priority 2013, dated 2015).
Values after ≈ are worked out from the molar mass of the structure shown.

Experiment: Water solubility of test compounds compared with EPA
Format: physicochemical
Details: thermodynamic from solid; distilled water added in small portions until clear solution
Experimental: Measurement of the water solubility of the test compound was accomplished by using methods well known to those skilled in the art. Specifically, to a weighed amount of the test compounds of Example-1, Example-2, Example-3 and EPA were taken in separate vials; distilled water was added in small portions until a clear solution was obtained. The water solubility is calculated by dividing the weight of salt, in mg, by the volume of the solution, in mL. The water solubility of the compounds of example-1, example-2, example-3 compared to EPA alone were as follows: […]

| SMILES | solubility [mg/mL] |
| --- | --- |
| CC/C=C\C/C=C\C/C=C\C/C=C\C/C=C\CCCC(=O)O [EPA, Eicosapentaenoic Acid, reference compound] | < 0.3 |
| CC/C=C\C/C=C\C/C=C\C/C=C\C/C=C\CCCC(=O)OCC(C)(C)[C@@H](OC(=O)c1cccnc1)C(=O)NCCC(=O)O [Example-2, amino(3,3-dimethylguanidino)methaniminium 3-((R)-4-((5Z,8Z,11Z,14Z,17Z)-icosa-5,8,11,14,17-pentaenoyloxy)-3,3-dimethyl-2-(nicotinoyloxy)butanamido)propanoate] | 103 (≈ 169 mM) |
| CC/C=C\C/C=C\C/C=C\C/C=C\C/C=C\CCCC(=O)OCC(C)(C)[C@@H](OC(=O)c1ccccc1OC(=O)c1ccccc1OC(C)=O)C(=O)NCCC(=O)O [Example-3, amino(3,3-dimethylguanidino)methaniminium3-((R)-2-((2-((2-acetoxybenzoyl)oxy)benzoyl)oxy)-4-((5Z,8Z,11Z,14Z,17Z)-icosa-5,8,11,14,17-pentaenoyloxy)-3,3-dimethylbutanamido)propanoate] | 98 (≈ 125 mM) |
| CC/C=C\C/C=C\C/C=C\C/C=C\C/C=C\CCCC(=O)OCC(C)(C)[C@@H](O)C(=O)NCCC(=O)O [Example-1, amino(3,3-dimethylguanidino)methaniminium 3-((R)-2-hydroxy-4-((5Z,8Z,11Z,14Z,17Z)-icosa-5,8,11,14,17-pentaenoyloxy)-3,3-dimethylbutanamido) propanoate] | 60 (≈ 119 mM) |
